Reference: ChEMBL document CHEMBL1201862, “PubChem BioAssay data set” (2004)
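Cultured in 96-well plates, cells were exposed to test compound for 48 hours across five concentrations. GI50 = concentration required for 50% inhibition of growth.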 The source made the active and inactive calls. Cut-off read from the data, not from the text of the source: active = GI50 up to about 1.1 µM and inactive = higher.

Experiments:
Experiment in all cases: growth of human tumour cells (NCI), 48 h
HCT-116 = tested on: HCT-116
UO-31 = tested on: UO-31
K562 = tested on: K562
A549 = tested on: A549
Hs-578T = tested on: Hs-578T
NCI/ADR-RES = tested on: NCI/ADR-RES
NCI-H226 = tested on: NCI-H226
CCRF-CEM = tested on: CCRF-CEM
KM12 = tested on: KM12
PC-3 = tested on: PC-3
MDA-MB-231 = tested on: MDA-MB-231
CAKI-1 = tested on: CAKI-1
T47D = tested on: T47D
U-251 = tested on: U-251
SF-268 = tested on: SF-268
IGROV-1 = tested on: IGROV-1
Malme-3M = tested on: Malme-3M
SNB-75 = tested on: SNB-75
OVCAR-8 = tested on: OVCAR-8
HOP-62 = tested on: HOP-62
SK-OV-3 = tested on: SK-OV-3
COLO 205 = tested on: COLO 205
SW-620 = tested on: SW-620
BT-549 = tested on: BT-549
RPMI-8226 = tested on: RPMI-8226
OVCAR-4 = tested on: OVCAR-4
OVCAR-3 = tested on: OVCAR-3
OVCAR-5 = tested on: OVCAR-5
HCT-15 = tested on: HCT-15
M14 = tested on: M14
DU-145 = tested on: DU-145
HCC 2998 = tested on: HCC 2998
NCI-H460 = tested on: NCI-H460
SK-MEL-28 = tested on: SK-MEL-28
UACC-257 = tested on: UACC-257
MDA-N = tested on: MDA-N
HT-29 = tested on: HT-29
786-0 = tested on: 786-0
MOLT-4 = tested on: MOLT-4
SK-MEL-5 = tested on: SK-MEL-5
SN12C = tested on: SN12C
UACC-62 = tested on: UACC-62
NCI-H23 = tested on: NCI-H23
NCI-H522 = tested on: NCI-H522
A498 = tested on: A498
SNB-19 = tested on: SNB-19
EKVX = tested on: EKVX
HOP-92 = tested on: HOP-92
SF-539 = tested on: SF-539
SF-295 = tested on: SF-295
MCF7 = tested on: MCF7
MDA-MB-435 = tested on: MDA-MB-435
RXF 393 = tested on: RXF 393
HL-60 = tested on: HL-60
LOX IMVI = tested on: LOX IMVI
ACHN = tested on: ACHN
TK-10 = tested on: TK-10
SK-MEL-2 = tested on: SK-MEL-2

For CCOC(=O)[C@H]1O[C@@H]1C(=O)NC(CC(C)C)C(=O)NCCC(C)C (some centres undefined), the GI50 (HCT-116) was > 100 µM (inactive), the GI50 (UO-31) was > 100 µM (inactive) and the GI50 (K562) was > 100 µM (inactive). The GI50 (A549) was > 100 µM (inactive), the GI50 (Hs-578T) was > 100 µM (inactive) and the GI50 (NCI/ADR-RES) was > 100 µM (inactive). The GI50 (NCI-H226) was > 100 µM (inactive), the GI50 (CCRF-CEM) was > 100 µM (inactive) and the GI50 (KM12) was > 100 µM (inactive). For the same molecule, the GI50 (PC-3) was > 100 µM (inactive), the GI50 (MDA-MB-231) was > 100 µM (inactive) and the GI50 (CAKI-1) was > 100 µM (inactive). The GI50 (T47D) was > 100 µM (inactive), the GI50 (U-251) was > 100 µM (inactive) and the GI50 (SF-268) was > 100 µM (inactive). The GI50 (IGROV-1) was > 100 µM (inactive), the GI50 (Malme-3M) was > 100 µM (inactive) and the GI50 (SNB-75) was > 100 µM (inactive). For the same molecule, the GI50 (OVCAR-8) was > 100 µM (inactive), the GI50 (HOP-62) was > 100 µM (inactive) and the GI50 (SK-OV-3) was > 100 µM (inactive). The GI50 (COLO 205) was > 100 µM (inactive), the GI50 (SW-620) was > 100 µM (inactive) and the GI50 (BT-549) was > 100 µM (inactive). For the same molecule, the GI50 (RPMI-8226) was > 100 µM (inactive), the GI50 (OVCAR-4) was > 100 µM (inactive) and the GI50 (OVCAR-3) was > 100 µM (inactive). The GI50 (OVCAR-5) was > 100 µM (inactive), the GI50 (HCT-15) was > 100 µM and the GI50 (M14) was > 100 µM (inactive). The GI50 (DU-145) was > 100 µM (inactive), the GI50 (HCC 2998) was > 100 µM (inactive) and the GI50 (NCI-H460) was > 100 µM (inactive). For the same molecule, the GI50 (SK-MEL-28) was > 100 µM (inactive), the GI50 (UACC-257) was > 100 µM (inactive) and the GI50 (MDA-N) was > 100 µM (inactive). The GI50 (HT-29) was > 100 µM (inactive), the GI50 (786-0) was > 100 µM (inactive) and the GI50 (MOLT-4) was > 100 µM (inactive). The GI50 (SK-MEL-5) was > 100 µM (inactive), the GI50 (SN12C) was > 100 µM (inactive) and the GI50 (UACC-62) was > 100 µM (inactive). The GI50 (NCI-H23) was > 100 µM (inactive), the GI50 (NCI-H522) was > 100 µM (inactive) and the GI50 (A498) was > 100 µM (inactive). The GI50 (SNB-19) was > 100 µM (inactive), the GI50 (EKVX) was > 100 µM (inactive) and the GI50 (HOP-92) was > 100 µM (inactive). For the same molecule, the GI50 (SF-539) was > 100 µM (inactive), the GI50 (SF-295) was > 100 µM (inactive) and the GI50 (MCF7) was > 100 µM (inactive). The GI50 (MDA-MB-435) was > 100 µM (inactive).
With CC[C@]12C=CCN3CC[C@@]4(c5cc(Br)c(OC)cc5N(C)[C@H]4[C@@](O)(C(=O)NN)[C@@H]1O)[C@@H]32 the GI50 (HCT-116) was > 100 µM (inactive), the GI50 (UO-31) was > 100 µM (inactive) and the GI50 (K562) was 48.2 µM (inactive). For the same molecule, the GI50 (RXF 393) was 22.5 µM (inactive), the GI50 (A549) was > 100 µM (inactive) and the GI50 (Hs-578T) was 76.4 µM (inactive). For the same molecule, the GI50 (NCI/ADR-RES) was > 100 µM (inactive), the GI50 (NCI-H226) was 43 µM (inactive) and the GI50 (CCRF-CEM) was 38 µM (inactive). The GI50 (KM12) was > 100 µM (inactive), the GI50 (HL-60) was 37.9 µM (inactive) and the GI50 (PC-3) was 28.1 µM (inactive). For the same molecule, the GI50 (MDA-MB-231) was 70.3 µM (inactive), the GI50 (CAKI-1) was > 100 µM (inactive) and the GI50 (T47D) was 40.4 µM (inactive). For the same molecule, the GI50 (U-251) was 52 µM (inactive), the GI50 (SF-268) was 56.1 µM (inactive) and the GI50 (IGROV-1) was 87.1 µM (inactive). The GI50 (Malme-3M) was 69.8 µM (inactive), the GI50 (SNB-75) was 18.2 µM (inactive) and the GI50 (OVCAR-8) was 46.9 µM (inactive). For the same molecule, the GI50 (HOP-62) was > 100 µM (inactive), the GI50 (SK-OV-3) was 75.7 µM (inactive) and the GI50 (LOX IMVI) was 65.6 µM (inactive). For the same molecule, the GI50 (COLO 205) was > 100 µM (inactive), the GI50 (SW-620) was > 100 µM (inactive) and the GI50 (BT-549) was 36.1 µM (inactive). For the same molecule, the GI50 (OVCAR-4) was 96.6 µM (inactive), the GI50 (OVCAR-3) was 58.9 µM (inactive) and the GI50 (OVCAR-5) was > 100 µM (inactive). The GI50 (HCT-15) was > 100 µM, the GI50 (M14) was 55.5 µM (inactive) and the GI50 (ACHN) was 79.3 µM (inactive). The GI50 (DU-145) was > 100 µM (inactive), the GI50 (HCC 2998) was > 100 µM (inactive) and the GI50 (NCI-H460) was > 100 µM (inactive). The GI50 (SK-MEL-28) was 67.3 µM (inactive), the GI50 (UACC-257) was 55 µM (inactive) and the GI50 (MDA-N) was 48.1 µM (inactive). The GI50 (HT-29) was > 100 µM (inactive), the GI50 (786-0) was 57.5 µM (inactive) and the GI50 (MOLT-4) was 26.7 µM (inactive). The GI50 (TK-10) was 59.4 µM (inactive), the GI50 (SK-MEL-5) was 49.5 µM (inactive) and the GI50 (SN12C) was 76.9 µM (inactive). For the same molecule, the GI50 (UACC-62) was 40.7 µM (inactive), the GI50 (NCI-H23) was 68.1 µM (inactive) and the GI50 (NCI-H522) was 52.2 µM (inactive). For the same molecule, the GI50 (A498) was 36.8 µM (inactive), the GI50 (SK-MEL-2) was 29.8 µM (inactive) and the GI50 (SNB-19) was 91.6 µM (inactive). For the same molecule, the GI50 (EKVX) was 59.4 µM (inactive), the GI50 (HOP-92) was > 100 µM (inactive) and the GI50 (SF-539) was 30.5 µM (inactive). For the same molecule, the GI50 (SF-295) was 65.5 µM (inactive), the GI50 (MCF7) was 30.3 µM (inactive) and the GI50 (MDA-MB-435) was 93.5 µM (inactive).
